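Exposure lasted 48 hours, with cells grown in 96-well plates and compounds tested at five concentrations. Definition used: TGI = concentration required for complete inhibition of growth.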
Tests used:
Test in all cases: inhibition of tumour cell growth, NCI panel, 48 h
[1] = test system: 786-0 renal
[2] = test system: A498 renal
[3] = test system: A549 NSCLC
[4] = test system: ACHN renal
[5] = test system: COLO 205 colon
[6] = test system: DU-145 prostate
[7] = test system: EKVX NSCLC
[8] = test system: HCT-116 colon
[9] = test system: HCT-15 colon
[10] = test system: HOP-62 NSCLC
[11] = test system: HOP-92 NSCLC
[12] = test system: HT29 colon
[13] = test system: KM12 colon
[14] = test system: LOX IMVI melanoma
[15] = test system: M14 melanoma
[16] = test system: MALME-3M melanoma
[17] = test system: MCF7 breast
[18] = test system: MDA-MB-231 breast
[19] = test system: MDA-MB-435
[20] = test system: MDA-N
[21] = test system: NCI-H23 lung
[22] = test system: NCI/ADR-RES ovarian
[23] = test system: OVCAR-4 ovarian
[24] = test system: OVCAR-5 ovarian
[25] = test system: OVCAR-8 ovarian
[26] = test system: PC-3 prostate
[27] = test system: SF-295 CNS
[28] = test system: SF-539 CNS
[29] = test system: SK-MEL-2 melanoma
[30] = test system: SK-MEL-28 melanoma
[31] = test system: SK-MEL-5 melanoma
[32] = test system: SK-OV-3 ovarian
[33] = test system: SN12C renal
[34] = test system: SNB-75 CNS
[35] = test system: SW-620 colon
[36] = test system: U251 CNS
[37] = test system: UACC-257 melanoma
[38] = test system: UACC-62 melanoma
[39] = test system: UO-31 renal
[40] = test system: BT-549 breast
[41] = test system: CAKI-1 renal
[42] = test system: CCRF-CEM leukemia
[43] = test system: HCC-2998 colon
[44] = test system: HL-60(TB) leukemia
[45] = test system: HS 578T breast
[46] = test system: IGROV1 ovarian
[47] = test system: K-562 leukemia
[48] = test system: MOLT-4 leukemia
[49] = test system: NCI-H226 lung
[50] = test system: NCI-H460 lung
[51] = test system: OVCAR-3 ovarian
[52] = test system: RPMI-8226 leukemia
[53] = test system: RXF 393 renal
[54] = test system: SF-268 CNS
[55] = test system: SNB-19 CNS
[56] = test system: T-47D breast
[57] = test system: TK-10 renal

Compound: Cc1csc2nc(-c3ccc(Cl)c([N+](=O)[O-])c3)c(/C=N/N=C(N)N)n12
- TGI [1]: 2.93 µM
- TGI [2]: 2.85 µM
- TGI [3]: 3.54 µM
- TGI [4]: 2.94 µM
- TGI [5]: 2.37 µM
- TGI [6]: 4.86 µM
- TGI [7]: 2.93 µM
- TGI [8]: 3.97 µM
- TGI [9]: 3.02 µM
- TGI [10]: 3.41 µM
- TGI [11]: 1.38 µM
- TGI [12]: 3.26 µM
- TGI [13]: 4.75 µM
- TGI [14]: 2.97 µM
- TGI [15]: 3.38 µM
- TGI [16]: 4.38 µM
- TGI [17]: 3.67 µM
- TGI [18]: 3.68 µM
- TGI [19]: 3.13 µM
- TGI [20]: 2.69 µM
- TGI [21]: 3.29 µM
- TGI [22]: 5.95 µM
- TGI [23]: 3.4 µM
- TGI [24]: 2.55 µM
- TGI [25]: 1.57 µM
- TGI [26]: 2.81 µM
- TGI [27]: 2.78 µM
- TGI [28]: 2.98 µM
- TGI [29]: 2.48 µM
- TGI [30]: 3.45 µM
- TGI [31]: 2.94 µM
- TGI [32]: 3.24 µM
- TGI [33]: 3.68 µM
- TGI [34]: 3.37 µM
- TGI [35]: 1.35 µM
- TGI [36]: 2.97 µM
- TGI [37]: 1.82 µM
- TGI [38]: 3.3 µM
- TGI [39]: 2.33 µM

Compound: CN(C)c1ccc(N=Nc2ccncc2)cc1
- TGI [1]: > 100 µM
- TGI [2]: > 100 µM
- TGI [3]: > 100 µM
- TGI [4]: > 100 µM
- TGI [40]: > 100 µM
- TGI [41]: > 100 µM
- TGI [42]: > 100 µM
- TGI [5]: > 100 µM
- TGI [6]: > 100 µM
- TGI [7]: > 100 µM
- TGI [43]: 92.6 µM
- TGI [8]: > 100 µM
- TGI [9]: > 100 µM
- TGI [44]: > 100 µM
- TGI [10]: > 100 µM
- TGI [11]: 98.6 µM
- TGI [45]: > 100 µM
- TGI [12]: > 100 µM
- TGI [46]: > 100 µM
- TGI [47]: > 100 µM
- TGI [13]: > 100 µM
- TGI [14]: > 100 µM
- TGI [15]: > 100 µM
- TGI [16]: > 100 µM
- TGI [17]: > 100 µM
- TGI [18]: > 100 µM
- TGI [19]: > 100 µM
- TGI [20]: > 100 µM
- TGI [48]: > 100 µM
- TGI [49]: > 100 µM
- TGI [21]: > 100 µM
- TGI [50]: > 100 µM
- TGI [22]: > 100 µM
- TGI [51]: > 100 µM
- TGI [23]: > 100 µM
- TGI [24]: > 100 µM
- TGI [25]: > 100 µM
- TGI [26]: > 100 µM
- TGI [52]: > 100 µM
- TGI [53]: > 100 µM
- TGI [54]: > 100 µM
- TGI [27]: > 100 µM
- TGI [28]: > 100 µM
- TGI [30]: > 100 µM
- TGI [31]: > 100 µM
- TGI [32]: > 100 µM
- TGI [33]: > 100 µM
- TGI [55]: > 100 µM
- TGI [35]: > 100 µM
- TGI [56]: > 100 µM
- TGI [57]: > 100 µM
- TGI [36]: > 100 µM
- TGI [37]: > 100 µM
- TGI [38]: > 100 µM
- TGI [39]: > 100 µM
